# Columns and labels:
# [1] = target: T1, α2-adrenergic receptor ([3H] clonidine binding site in calf cerebral cortex) (Bos taurus, UniProt Q28838); assay: α2-adrenergic receptor binding ([3H] clonidine binding site)
# T1 construct: from tissue; host or cells: calf cerebral cortex
# T1 sequence (Q28838 1-468): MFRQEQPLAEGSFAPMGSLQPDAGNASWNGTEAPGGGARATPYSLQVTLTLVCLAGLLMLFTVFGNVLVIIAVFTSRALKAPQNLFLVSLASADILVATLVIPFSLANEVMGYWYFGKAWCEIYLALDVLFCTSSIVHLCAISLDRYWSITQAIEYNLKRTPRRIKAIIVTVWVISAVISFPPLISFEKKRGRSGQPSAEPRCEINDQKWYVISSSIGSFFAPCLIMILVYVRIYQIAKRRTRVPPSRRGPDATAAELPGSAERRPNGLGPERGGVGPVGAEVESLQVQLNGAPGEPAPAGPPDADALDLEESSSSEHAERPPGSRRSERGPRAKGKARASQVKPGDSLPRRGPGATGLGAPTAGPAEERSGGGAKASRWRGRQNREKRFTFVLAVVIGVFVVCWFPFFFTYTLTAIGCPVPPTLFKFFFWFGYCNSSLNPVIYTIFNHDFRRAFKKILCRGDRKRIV
# Protocol: Binding to the α2 -adrenergic receptor was determined by the method of Lyon and Randall, Life Sciences, 26, 1121 (1980) and also is expressed in Table I as Ki representing the affinity of each compound for the [^3 H] clonidine binding site in calf cerebral cortex.
# [2] = target: α1-adrenergic receptor ([3H] prazosin binding site in calf cerebral cortex); assay: α1-adrenergic receptor binding ([3H] prazosin binding site)
# Protocol: The α1 - and α2 -adrenergic receptor binding as determined for some of the active compounds of this invention are shown in Table I.
# Extent of binding to the α1 -adrenergic receptor was determined by the method of Greengrass and Bremner, Eur. J. Pharmacol., 55, 323 (1979) and is expressed in Table I as Ki, representing the affinity of each compound for the [^3 H] prazosin binding site in calf cerebral cortex.
# [3] = test system: sedation produced by clonidine; settings: Drew et al., 1979; cited from earlier work
# [4] = test system: clonidine-induced sedation in man; settings: Autret et al., 1977; cited from earlier work
# [5] = test system: locomotor depressant effects of methyldopa in rats; settings: Clineschmidt et al., 1980; cited from earlier work
# [6] = test system: α-Methyldopa (α-MD) Depression of Rat Locomotor Activity; assay: Antagonism of α-methyldopa (α-MD) depression of rat locomotor activity; assay type: in vivo, Female Sprague-Dawley rats; settings: 20-minute period
# Excerpt: Female Sprague-Dawley rats (Sprague-Dawley, Madison, Wis.) weighing 55-90 g were used in these studies. The test apparatus consisted of 10 activity chambers in a closed metal cabinet separated into individual compartments measuring 43×43 cm with a solid partition between each chamber. Ventilation in the cabinet was provided by two high speed fans, and background noise was supplied with a Grason-Stadler Noise Generator. The activity chambers were constructed from clear plexiglass cylinders, 30 cm high by 30 cm in diameter. Two infrared photocells were mounted at a height of 3 cm above the floor, the receivers being at the same height and directly opposite. Interruption of either of the beams registered independently as an activity count. The accumulated locomotor activity counts were stored in a microprocessor-based acquisition system and printed out at a preprogrammed interval on an ASR-33 Teletype unit. The decrease in locomotor activity caused by α-MD is most readily demonstrable during the time immediately following introduction of the rats into the test apparatus. Therefore, activity counts were recorded for a 20-minute period, beginning with placement of the animals in the test chambers. Animals with the various treatments were systematically rotated through the chambers. […] Dunnett's test was used for comparison of several treatment groups with a control group and the least significant difference test for comparison of the means of any two treatment groups. A P value of 0.05 (two-sided) was considered as indicating significance.
# Animals were pretreated (3 hours, 4 minutes) with α-MD (200 or 400 mg/kg, p.o.), and various doses of 8-(1-piperazinyl)imidazo[1,2-a]pyrazine.2HCl.H2 O (0.11-3.0 mg/kg, sc) 40 minutes prior to testing. Vehicles used in control animals were 1% methylcellulose (in which α-MD was suspended) and saline (in which the experimental compound was dissolved).
smiles,measurement,setting,value
CN1CCN(c2nc(Cl)cn3ccnc23)CC1 [Compound 4],Ki,[1],121 nM
same,Ki,[2],380 nM
Clc1cn2ccnc2c(N2CCNCC2)n1 [Compound 1],Ki,[1],73 nM
same,Ki,[2],250 nM
Clc1cnc2c(N3CCNCC3)nccn12 [Compound 2],Ki,[1],240 nM
same,Ki,[2],2800 nM
COC(=O)[C@@H]1[C@H]2C[C@H]3c4[nH]c5ccccc5c4CCN3C[C@@H]2CC[C@@H]1O [yohimbine],effect on sedation produced by clonidine,[3],antagonizes the sedation produced by clonidine
same,effect on clonidine-induced sedation in man,[4],reduce clonidine-induced sedation in man
same,effect on locomotor depressant effects of methyldopa,[5],antagonizes
"Cl.Cl.O.c1cn2ccnc2c(N2CCNCC2)n1 [Compound, 8-(1-piperazinyl)imidazo[1,2-a]pyrazine dihydrochloride hydrate]",locomotor activity (square roots of activity counts),"[6]; experiment 1, compound 0.11 mg/kg s.c. 40 min, with α-MD 400 mg/kg p.o.",5.1 ± 0.5
same,locomotor activity (square roots of activity counts),"[6]; experiment 1, compound 0.33 mg/kg s.c. 40 min, with α-MD 400 mg/kg p.o.",8.4 ± 0.9
same,locomotor activity (square roots of activity counts),"[6]; experiment 1, compound 1.0 mg/kg s.c. 40 min, with α-MD 400 mg/kg p.o.",11.7 ± 1.3
same,locomotor activity (square roots of activity counts),"[6]; experiment 1, compound 3 mg/kg s.c. 40 min after α-MD 400 mg/kg p.o.",11.6 ± 1.3
same,locomotor activity (square roots of activity counts),"[6]; experiment 2, compound 0.11 mg/kg s.c. 40 min, with α-MD 200 mg/kg p.o.",8.4 ± 1.1
same,locomotor activity (square roots of activity counts),"[6]; experiment 2, compound 0.33 mg/kg s.c. 40 min, with α-MD 200 mg/kg p.o.",9.5 ± 1.2
same,locomotor activity (square roots of activity counts),"[6]; experiment 2, compound 1.0 mg/kg s.c. 40 min, with α-MD 200 mg/kg p.o.",11.4 ± 1.2
same,locomotor activity (square roots of activity counts),"[6]; experiment 2, compound 3.0 mg/kg s.c. 40 min, with α-MD 200 mg/kg p.o.",12.2 ± 1.2
"C[C@](N)(Cc1ccc(O)c(O)c1)C(=O)O [α-MD, α-Methyldopa, reference compound]",locomotor activity (square roots of activity counts),"[6]; experiment 1, α-MD 400 mg/kg p.o. 3 hr + saline s.c.",4.7 ± 0.7
same,locomotor activity (square roots of activity counts),"[6]; experiment 2, α-MD 200 mg/kg p.o. 3 hr + saline s.c.",6.8 ± 0.5
"c1cn2ccnc2c(N2CCNCC2)n1 [Compound 3, 8-(1-piperazinyl)imidazo[1,2-a]pyrazine]",Ki,[1],15 nM
same,Ki,[2],3100 nM

# From US4376772A, “Use of piperazinyl-imidazo[1,2-a]pyrazines in sedation” (Merck & Co., Inc., priority 1981, dated 1983)
